What was measured:
[1] = system: reactive microglial cells; assay: Microglial reaction (OX42 Western blot, Iba1 staining); format: in vivo, mouse
Protocol: Further studies were conducted using a dosing regime of once a week for six months administered subcutaneously. Three and six months old 3×Tg-AD and age-matched non-Tg mice were chosen for the experiments, since AD pathology (Aβ) starts development at 3-month and abundant accumulation at 6-months. Allopregnanolone was subcutaneously (s.c.) administrated with 10 mg/kg once per week for 6 months. For neurogenesis and neurosurvival study, BrdU, IdU and CIdU were intraperitoneal (i.p.) injected at the first 5 days, mid 5 days and 5 days before sacrifice during 6-month treatment. After 6 months of allopregnanolone treatment, mice, at 9- and 12-month old, were sacrificed.
Western blot analysis was conducted with rabbit polyclonal anti-CD11b/c (OX42) which recognizes reactive microglial cells.

3×TgAD and non-Tg mice = assay: Trace eyeblink conditioning, learning and memory; format: in vivo, mouse; conditions: for memory performance nine days after learning trial / learning performance: 3 months; for learning performance: 10 mg/kg s.c. once
Protocol: Under deep anesthesia by intraperitoneal (i.p.) injection with ketamine (100 mg/kg i.p.) and xylazine (25 mg/kg i.p.), a 4 pin head stage (DIGI-KEY) was cemented to the skull of 3 month old male mouse with dental acrylic. The connector has four Teflon-coated stainless steel wires and one bare stainless steel wire (0.003″ bare and 0.0055″ coated, A-M Systems, Inc.). The bare wire was attached via a gold pin (Time Electronics) to the head stage. Coated wires were implanted s.c. in the orbicularis oculi dorsal to the left upper eyelid to record the EMG and s.c. periorbitally to deliver the shock US (3). All animals were then placed on a warm isothermal pad after surgery to recovery for 30 min. After surgery, mice were individually housed, provided with ad libitum access to food and water, and maintained on a 12 hr light/dark cycle.
After one week of acclimation to the colony room, mice with no obvious adverse responses to surgery were randomly assigned to an experimental condition. Mice were injected subcutaneously (s.c.) with 10 mg/kg THP or vehicle followed one hour later with an IP injection of BrdU (100 mg/kg). Following injection of test compound, mice were returned to their home cage for 7 days prior to onset of behavioral testing.
During the first day of training, mice were placed within Plexiglas cylinders in a sound-attenuated chamber and were habituated to the test environment for one session consisting of 30 stimulus-free trials at 30-60 sec inter-trial intervals while spontaneous eye-blink activity was recorded using electromyographic (EMG) activity recorded from the obicularis oculi dorsal to the orbit during each trial. EMG activity was rectified, and integrated using custom designed computational Labview routines.
Following habituation to the test environment mice underwent a learning phase and were trained for five days. Mice were trained by pairing delivery of a tone (CS, 250 msec, 2 kHz, 85 dB) as the conditioned stimulus followed by a 250 msec period of no stimuli, followed by the periobital shock as the unconditioned stimulus (US, 100 msec). Mice received two blocks of 30 trials per day (30-60-sec inter-trial intervals, 3-4-h inter-block intervals). This trace eye-blink conditioning paradigm is subthreshold for inducing neurogenesis. The unpaired group received random tone at the same magnitude as the paired conditioning and shock with 15-30 sec as inter-trial intervals and a total of 60 trials for one session per day. Shock intensity was adjusted daily for each mouse to elicit a head-movement response. Following the learning phase, mice were returned to their home cage for eight days followed on the ninth day by a single session to assess memory of the conditioned response. The percentage of CR was computed as the ratio of the number of CRs to the total number of valid trials. Animals were perfused at the end of the memory trial day.
To determine if there was a functional consequence of THP-induced neurogenesis, the impact of THP on both the learning and memory of a behavioral task shown to be dependent upon the generation of new neurons in the dentate gyrus, delayed trace conditioning was assessed. 3×TgAD and non-Tg background mice were prepared for behavioral testing and received a single s.c. injection of THP (10 mg/kg once) or vehicle 7 days prior to start of the learning trial. After injection, mice were housed for 7 days before the training process started. The rationale for the 7 day interim between exposure to THP and the start of the behavioral experiment was to allow time for the proliferation, migration and integration of newly generated neurons into the dentate gyrus.
Following the 7 day interim period, the behavioral testing commenced with a 5 day (2×30 trials/day) training learning phase to assess rate and magnitude learning performance. After the learning trial, mice were returned to their home cage for another 9 day period and subsequently tested for memory of the learned association. […]

[2] = system: mouse hippocampal neuron cell line (HT-22); assay: FACS of MuLV-GFP infected HT-22 cells; format: cell-based; conditions: THP 250 nM
Protocol: Having determined that THP increases the expression of the cell proliferating markers, a determination was sought as to whether the increase in cell proliferation markers translated into an increase in neuronal number. […] As shown in FIGS. 6A-6C, THP increases neuron number as assessed in MuLV-GFP infected mouse neurons. The effect of THP on HT-22 cells proliferation was detected on MuLV infected cells.
FIG. 6C summarizes the FACS results. V=vehicle; THP (250 nM).

[3] = system: hippocampus of 3×TgAD mice; assay: Long-term treatment with BrdU, IdU and CldU labelling; format: in vivo, mouse; conditions: 10 mg/kg once a week for 6 months, begun at 3 or 6 months of age
Protocol: In yet another study, THP (10 mg/kg once a week for 6 months) was administered to mice beginning at 3 months or 6 months of age. The cell proliferation marker, 5-bromodeoxyuridine (BrdU) was injected (100 mg/kg) one hour after initial THP treatment and once per day for the next four days to detect cell proliferation and cell survival over the six month treatment period. After 3 months treatment, the mice were injected 5 times with another nucleotide analog iododeoxyuridine (one per day). After 6 months treatment, the mice were injected with chlorodeoxyuridine (CldU) 5 times (once per day). Using specific antibodies, BrdU, IdU, and CldU incorporated cells will identify the 6 month survival, 3 month survival, and newly formed cells respectively. The mice were then sampled for biochemical, IHC, and flow cytometry assay. The results from mice with THP treatment initiated at 3 months old are shown in FIGS. 20B and 20C and initiated at 6 months old are shown in FIGS. 20D and 20E. The aim was to determine whether or not desensitization to THP was occurring.

CC(=O)[C@H]1CC[C@H]2[C@@H]3CC[C@H]4C[C@H](O)CC[C@]4(C)[C@H]3CC[C@]12C [THP, 3α-hydroxy-5α-pregnan-20-one]
anti-CD11b/c (OX42) band intensities ([1]; 9-month and 12-month 3×Tg): no significant differences
anti-Iba1 immunofluorescent staining ([1]; hippocampal CA1): lower levels of immunoactivity in THP-treated hippocampal CA1
memory performance nine days after learning trial (3×TgAD and non-Tg mice; 3×TgAD mice): significant increase in memory
learning performance (3×TgAD and non-Tg mice; 3×TgAD mice): significantly increased the learning performance
learning level (conditioned response) at the end of training (3×TgAD and non-Tg mice; 3×TgAD mice, 6-months-old, 10 mg/kg): 39.2±9.2%
memory test 9 days after acquisition phase (3×TgAD and non-Tg mice; 3×TgAD mice, 6 months): significantly increased the retention of the conditioned response rate
final level of learning (3×TgAD and non-Tg mice; 3×TgAD mice, 9-months-old): 23.6±4.0%
memory performance after 9 days vs vehicle (3×TgAD and non-Tg mice; 3×TgAD mice, 9-months-old): significantly better memory performance
final level of learning (3×TgAD and non-Tg mice; 3×TgAD mice, 12-months-old): 14.9±3.6%
memory deficit vs vehicle-treated non-Tg mice (3×TgAD and non-Tg mice; 3×TgAD mice, 12-months-old): not reversed
learning rate and final level of learning (3×TgAD and non-Tg mice; 3×TgAD mice, 15-month-old): did not affect the learning rate nor the final levels of learning
% CR (3×TgAD and non-Tg mice; 3×TgAD mice, memory phase): 53.96%
memory performance nine days after learning trial (3×TgAD and non-Tg mice; non-Tg mice): did not significantly augment the memory performance
learning performance (3×TgAD and non-Tg mice; non-Tg mice): did not augment the learning performance
memory retention (3×TgAD and non-Tg mice; non-Tg mice, 6 months): no effect
maximal conditioned response rate (3×TgAD and non-Tg mice; non-Tg mice, 6 months, 10 mg/kg): 30.4±7.7%
final level of learning (3×TgAD and non-Tg mice; non-Tg mice, 9-months-old): 20.6±4.1%
memory test performance (3×TgAD and non-Tg mice; non-Tg mice, 9-months-old): no significant effect
final level of learning (3×TgAD and non-Tg mice; non-Tg mice, 12-months-old): 25.4±6%
memory performance (3×TgAD and non-Tg mice; non-Tg mice, 12-months-old): modest improved memory performance which was not significantly better than vehicle-treated group
maximum level of learning (3×TgAD and non-Tg mice; non-Tg mice, 15-months-old): 29.6±5.5%
increase in dividing cell number [2]: 22%
responsiveness of the brain (desensitization) [3]: still responsive to THP at 3 and 6 months
